From patent US9084779B2, “Conjugates of nitroimidazoles and their use as chemotherapeutic agents” (The Johns Hopkins University, priority 2011, dated 2015)

Tests used:
Type in all cases: cell-based
[1] = tested on: Hep3B human hepatocellular carcinoma cells; experiment: MTS tetrazolium cell proliferation assay, 72-h exposure; details: normoxic (21% O2), read-out: IC50 Normoxic (N)
From the text: Anti-proliferative assay. The human hepatocellular carcinoma cell line Hep3B was purchased from American Type culture Collection (ATCC, Manassas, Va.). Dulbecco's Modified Eagle Medium (DMEM) and penicillin/streptomycin (P/S) were obtained from GIBCO Invitrogen. Fetal Bovine serum (FBS) was obtained from Thermo Scientific Hyclone. Dimethyl sulfoxide (DMSO-Hybri-Max) was purchased from Sigma-Aldrich Co. and the CellTiter 96 AQueous One Solution Cell Proliferation Assay (MTS) was acquired from Promega Corp. Hep3B cells were maintained in DMEM supplemented with 10% FBS and 1× P/S solution. Cultures were incubated at 37° C. in a 5% CO2 atmosphere with 99% humidity. Stock solutions of test compounds were prepared in DMSO for use in the cell culture viability assays.
MTS tetrazolium cell proliferation assay. The viability of Hep3B cells exposed to the synthesized compounds was determined by the MTS assay. Briefly, Hep3B cells were plated in 96-well plates at a density of 3.0×10^3 cells/well and incubated for 24-h before treatment. At the initiation of treatment, the growth media was replaced with 200 μL of media containing increasing concentrations of the test compounds in triplicate wells. The final DMSO concentration in the media was 1.0% including the media added to the control wells minus the test compound. After a 72-hour incubation, 40 μL of MTS solution was added to each well and the plates were incubated for an additional 3.0 hours. The plates were then read at 490 nm on a Biotek Instruments PowerWave 200 microplate reader. For each experiment the percent growth inhibition relative to the control (no drug addition) was calculated and a dose inhibition curve was generated. The concentration of drug required to inhibit cell growth by 50% (IC50) compared to the control cells was then determined by non-linear regression using PSI-Plot software (Poly Software International).
Antiproliferative activity. The anti-cancer activities of the parent compounds 3 and 8 and the conjugated compounds 7a-d and 10a-d were tested against Hep3B human hepatocellular carcinoma cells in culture.

[2] = tested on: Hep3B human hepatocellular carcinoma cells; experiment: Hypoxia targeting assay, 5-h exposure then 5 days growth, MTS; details: for IC50: Homo sapiens
Experimental: Hypoxia targeting assay. Hep3B cells, plated in 96-well plates at a density of 3.0×10^3 cells/well, were incubated overnight and then treated with the test compounds for 5.0 hours at under hypoxic (1% O2) or normoxic (21% O2) conditions. Exposure of cells to hypoxia was carried out in a PROOX C-Chamber with O2 and CO2 levels modulated by a PROOX Model C21 Controller (BioSpherix). At the end of the treatment period, the wells were washed with phosphate buffered saline (PBS) and fresh compound-free media was added. The cells were cultured for an additional 5 days under normoxic conditions and then assayed for cell proliferation using the MTS assay.
Hypoxia targeting. Nitroimidazoles are converted to reactive compounds in hypoxic cells. Therefore it is of importance to compare the antiproliferative activities of the nitroimidazole conjugated compounds against Hep3B cells under normoxic and hypoxic conditions. In these experiments, Hep3B cells in culture were treated with each of the conjugated compounds 7c-d, 10c-d, or the parent compounds 3 or 8 for a 5.0-hour period under normoxic (21% O2) or hypoxic (1.0% O2) conditions. After treatment, the cells were returned to normal conditions and assayed for proliferation after 5 days of additional growth. […] The ratio between the IC50 values for each drug under normoxic versus hypoxic culture conditions was computed and used as a measure of the relative increase in potency.

[3] = tested on: 786-0 human renal adenocarcinoma cells; experiment: MTT cell viability assay, 3 days; details: Homo sapiens, 786-0, 72 h, normoxic conditions, 1% DMSO
Experimental: (§1) Additional cell culture, drug treatment and cell viability assays. HT29 human colorectal carcinoma cells, 786-0 human renal adenocarcinoma cells and Hep3B human hepatocellular carcinoma cells were obtained from ATCC and maintained in culture according to their recommendations. […] After the treatment period viability of the cells was determined with the MTT cell viability assay and dose response curves were generated using the calculated values of the percentage viable cells relative to the vehicle control.

[4] = tested on: HT29 human colorectal carcinoma cells; experiment: MTT cell viability assay, 3 days; details: Homo sapiens, HT-29, 72 h, normoxic conditions, 1% DMSO
Experimental: as §1

[5] = tested on: Hep3B human hepatocellular carcinoma cells; experiment: MTT cell viability assay, 3 days; details: Homo sapiens, Hep3B, 72 h, normoxic conditions, 1% DMSO
Experimental: as §1

[6] = tested on: HT29 human colorectal carcinoma cells; experiment: Cell viability by plating efficiency (colony formation after replating); details: 40 μM, 48 h, diluted 10,000 fold and replated, colonies stained eight days later
Experimental: FIG. 6 depicts the plating efficiency of HT29 human colorectal carcinoma cells after treatment with DMSO, 40μ M3n and 40μ M3N-PEG-2NI. HT29 cells were treated for 48 h with 40 μM M3N, 40 μM M3N-PEG-2NI or the DMSO vehicle. At the end of the treatment period, the cells were diluted 10,000 fold and replated. Eight days later colonies were stained with methylene blue.
For the further assessment of cell viability by plating efficiency, cells (2×10^6 cells/100 mm dish) from the human colorectal carcinoma cell line HT29 were treated for 48 hours with 40 μM M3N, 40 μM M3N-PEG-2NI or the DMSO vehicle. At the end of the treatment period, the cells from each dish were released by trypsinization, diluted 10,000 fold and replated into new 100 mm dishes. Eight days later colonies were stained with 0.25% methylene blue in 50% ethanol

[7] = tested on: LNCaP human prostate cancer cells; experiment: Western blot analysis of 2-nitroimidazole induced protein adducts in cell culture; details: 80 μM, 6 hours normoxic then 6 hours hypoxic or normoxic
Experimental: Western blot analysis of 2-nitroimidazole induced protein adducts in LNCaP cell cultures. Exponentially growing LNCaP human prostate cancer cells were treated with DMSO, 80 μM M3N-PEG-2NI or Hypoxyprobe-1 in standard media for 6 hours under normoxic conditions and then under hypoxic or normoxic conditions for additional 6 hours. Afterward the media was aspirated, the cells washed and ice cold RIPA lysis buffer was added and the cells lysed on ice for 15 minutes. The samples were centrifuged and the lysate collected. Cellular proteins in the extracts were analyzed for the presence of protein adducts using standard western blotting technique. The primary antibody was PAb2627 polyclonal antibody (1:200) directed against Hydroxyprobe-1 protein adducts. The secondary antibody was Anti-Rabbit HRP conjugate (1:2000). Detection was by chemiluminescence

- IC50 [1]: 12.6 ± 4.9 µM
- IC50 ([2]; hypoxic (1.0% O2), then 5 days normoxic growth, read-out: IC50 Hypoxic (H)): 53.2 ± 8 µM
- IC50 ([2]; normoxic (21% O2), then 5 days growth, read-out: IC50 Normoxic (N)): 60.8 ± 9.4 µM
- IC50 [3]: 10 to 14 µM
- IC50 [4]: 4 to 6 µM
- IC50 [5]: 4 µM
Structure (SMILES): COc1ccc(C[C@H](C)[C@H](C)Cc2ccc(OC)c(OCCOCCOCCOCCn3ccnc3[N+](=O)[O-])c2)cc1OC (racemic) [Compound 7d, (±)-(2R,3S)-4-(3,4-Dimethoxyphenyl)-1-[4-methoxy-3-[12-(2-nitro-1H-imidazol-1-yl)-1,4,7,10-tetraoxadodecanyl]phenyl]-2,3-dimethylbutane]
- Ratio IC50 (N)/IC50 (H) ([2]; normoxic versus hypoxic): 1.14
- Ability of HT29 cells to replicate after treatment (plating efficiency) [6]: unable to replicate
- Protein adducts by western blot (PAb2627 antibody) [7]: showed evidence of protein adducts
